This is an account of results in patent US10093671B2, “2-oxo-6,7-dihydrobenzo[a]quinolizine-3-carboxylic acid derivatives for the treatment and prophylaxis of hepatitis B virus infection” (Hoffmann-La Roche Inc., priority 2015, dated 2018).

SMILES strings stand for the structures. Structures can show the parent of a compound that is named as a salt.

The subject of this assay is HBsAg. Kind of assay: microbe, parasite or virus in culture. The settings on record: Hepatitis B virus, HepG2.2.15, read-out: IC50 (HBsAg secretion reduced by 50% compared to the no drug control).

Experimental: HepG2.2.15 cells (Acs et al. Proc Natl Acad Sci USA, 84, (1987), 4641-4), a constitutively HBV-expressing cell line were cultured in DMEM+Glutamax-I medium (Invitrogen, Carlsbad, Calif., USA), supplemented with 10% fetal bovine serum (Invitrogen) and G418 (Invitrogen) at a final concentration of 200 mg/L and maintained in 5% CO2 at 37° C.
HepG2.2.15 cells were seeded in duplicate into white, 96-well plates at 1.5×10^4 cells/well. The cells were treated with a three-fold serial dilution series of the compounds in DMSO. The final DMSO concentration in all wells was 1% and DMSO was used as no drug control.
The HBsAg chemiluminescence immunoassay (CLIA) kit (Autobio Diagnostics Co., Zhengzhou, China, Catalog number: CL0310-2) was used to measure the levels of secreted HBV antigens semi-quantitatively. For the detection 50 μL/well culture supernatant was used and HBsAg was quantified using HBsAg chemiluminescence immunoassay (CLIA) kit (Autobio Diagnostics Co., Zhengzhou, China, Catalog number: CL0310-2), 50 μL of the supernatant was transferred to the CLIA assay plate and 50 μL of enzyme conjugate reagent was added into each well. The plates were sealed and gently agitated for 1 hour at room temperature. The supernatant-enzyme-mixture was discarded and wells were washed 6 times with 300 μL of PBS. The residual liquid was removed by plating the CLIA plate right side down on absorbent tissue paper. 25 μL of substrates A and B were added to each well. Luminance was measured using a luminometer (Mithras LB 940 Multimode Microplate Reader) after 10 minutes incubation. Dose-response curves were generated and the IC50 value was extrapolated by using the E-WorkBook Suite (ID Business Solutions Ltd., Guildford, UK). The IC50 was defined as the compound concentration (or conditioned media log dilution) at which HBsAg secretion was reduced by 50% compared to the no drug control.

Turning to `COc1cc2c(cc1OCCCCCCN)CC(c1cccs1)n1cc(C(=O)O)c(=O)cc1-2` (centres unmarked) [Example 22, 9-(6-aminohexoxy)-10-methoxy-2-oxo-6-(2-thienyl)-6,7-dihydrobenzo[a]quinolizine-3-carboxylic Acid Formate], the half-inhibitory concentration (IC50) worked out at 21 nM. Take `COc1cc2c(cc1OCCCS(C)(=O)=O)CC(c1cccs1)n1cc(C(=O)O)c(=O)cc1-2` (centres unmarked) [Example 32, 10-methoxy-9-(3-methylsulfonylpropoxy)-2-oxo-6-(2-thienyl)-6,7-dihydrobenzo[a]quinolizine-3-carboxylic Acid]: the half-maximal inhibitory concentration (IC50) was 110 nM. With `COCCCOc1cc2c(cc1OC)-c1cc(=O)c(C(=O)O)cn1C(c1ccc(F)cc1)C2` (centres unmarked) [Example 9, 6-(4-fluorophenyl)-10-methoxy-9-(3-methoxypropoxy)-2-oxo-6,7-dihydrobenzo[a]quinolizine-3-carboxylic Acid], the half-inhibitory concentration (IC50) turned out to be 83 nM. As for `COCCCOc1cc2c(cc1OC)-c1cc(=O)c(C(=O)O)cn1C(c1ccc(OC)cc1)C2` (centres unmarked) [Example 5, 10-methoxy-6-(4-methoxyphenyl)-9-(3-methoxypropoxy)-2-oxo-6,7-dihydrobenzo[a]quinolizine-3-carboxylic Acid], the figure is 800 nM; as for `COc1cc2c(cc1OCc1ccccc1)CC(c1cccs1)n1cc(C(=O)O)c(=O)cc1-2` (centres unmarked) [Example 12, 9-benzyloxy-10-methoxy-2-oxo-6-(2-thienyl)-6,7-dihydrobenzo[a]quinolizine-3-carboxylic Acid], 5 nM; as for `COCCCOc1cc2c(cc1OC)-c1cc(=O)c(C(=O)O)cn1C(c1ccc(OCc3ccccc3)cc1)C2` (centres unmarked) [Example 6, 6-(4-benzyloxyphenyl)-10-methoxy-9-(3-methoxypropoxy)-2-oxo-6,7-dihydrobenzo[a]quinolizine-3-carboxylic Acid], 1930 nM. Then `COc1cc2c(cc1OC)-c1cc(=O)c(C(=O)O)cn1C(c1cccs1)C2` (centres unmarked) [Example 13, 9,10-dimethoxy-2-oxo-6-(2-thienyl)-6,7-dihydrobenzo[a]quinolizine-3-carboxylic Acid], with 6 nM.

For `COc1cc2c(cc1C)CC(c1cccs1)n1cc(C(=O)O)c(=O)cc1-2` (centres unmarked) [Example 33, 10-methoxy-9-methyl-2-oxo-6-(2-thienyl)-6,7-dihydrobenzo[a]quinolizine-3-carboxylic Acid], the IC50 is 35 nM. As for `COc1cc2c(cc1OCC(F)(F)F)CC(c1cccs1)n1cc(C(=O)O)c(=O)cc1-2` (centres unmarked) [Example 27, 10-methoxy-2-oxo-6-(2-thienyl)-9-(2,2,2-trifluoroethoxy)-6,7-dihydrobenzo[a]quinolizine-3-carboxylic Acid], the figure is 3 nM; as for `COc1cc2c(cc1OCCCN1CCCCC1)CC(c1cccs1)n1cc(C(=O)O)c(=O)cc1-2` (centres unmarked) [Example 18, 10-methoxy-2-oxo-9-[3-(1-piperidyl)propoxy]-6-(2-thienyl)-6,7-dihydrobenzo[a]quinolizine-3-carboxylic Acid Formate], 97 nM. As for `CCCc1cc2c(cc1OC)-c1cc(=O)c(C(=O)O)cn1C(c1cccs1)C2` (centres unmarked) [Example 35, 10-methoxy-2-oxo-9-propyl-6-(2-thienyl)-6,7-dihydrobenzo[a]quinolizine-3-carboxylic Acid], the figure is 22 nM; as for `COc1cc2c(cc1OCCCC#N)CC(c1cccs1)n1cc(C(=O)O)c(=O)cc1-2` (centres unmarked) [Example 19, 9-(3-cyanopropoxy)-10-methoxy-2-oxo-6-(2-thienyl)-6,7-dihydrobenzo[a]quinolizine-3-carboxylic Acid], 5 nM. Then `COc1cc2c(cc1OCCCCCCO)CC(c1cccs1)n1cc(C(=O)O)c(=O)cc1-2` (centres unmarked) [Example 25, 9-(6-hydroxyhexoxy)-10-methoxy-2-oxo-6-(2-thienyl)-6,7-dihydrobenzo[a]quinolizine-3-carboxylic Acid], with 3 nM; and `COc1cc2c(cc1OCCCC(=O)O)CC(c1cccs1)n1cc(C(=O)O)c(=O)cc1-2` (centres unmarked) [Example 30, 9-(3-carboxypropoxy)-10-methoxy-2-oxo-6-(2-thienyl)-6,7-dihydrobenzo[a]quinolizine-3-carboxylic Acid], with 320 nM.

The IC50 is the concentration that inhibits the measured activity by half.
